Test results published in PMC11765512 (International Journal of Molecular Sciences, 2025).

Assays:
[1] = tested on: SARS-CoV-2 S-mediated cell–cell fusion (HEK-293T/SARS-CoV-2-S/EGFP with Vero); type: cell-based
[2] = tested on: AH109 (pAD-S-RBD+pBD-ACE2) cells; test: β-gal activity, ONPG assay in Y2H strain; type: cell-based, yeast
Method: The ONPG assay was conducted following the protocol of the β-gal activity quantitative detection kit (GENMED S[…]. USA, Arlington, MA, USA). The principle is based on the chemical reaction that the colorless substrate ONPG can be hydrolyzed by β-gal to generate o-nitrophenol (ONP) with a bright-yellow appearance. Briefly, cells were pelleted in Eppendorf® tubes and resuspended in Z-buffer. Chloroform and 0.2% SDS were added to the cells in the tubes and mixed by briefly vortexing, followed by incubation at 28 °C for 5 min. Next, the ONPG solution was added for further incubation. The reaction was terminated after 10 min for p53-T and after 25 min for all other samples by the addition of chilled Na2CO3. Absorbance was recorded at 420 nm. Results were normalized against the cell density and incubation time using the following formula: U=OD420sample−OD420blank/OD600×t×V
Here, ‘t’ represents the incubation time duration, measured in min, while ‘V’ denotes the volume of the cell cultures utilized for the assay, expressed in mL. The experiments were repeated three times.

[3] = tested on: Huh-7 cells; test: CCK-8 cytotoxicity, Huh-7; type: cell-based, Human; conditions: for Survival Rate (%) Huh-7: 50 μg/mL, 48 h, CCK-8
Method: (§1) African green monkey kidney cells (Vero), Human Hepatocellular Carcinoma Cells (Huh-7), and Human Embryonic Kidney 293T (HEK-293T) cells were maintained in our laboratory. Cells were cultured in Dulbecco’s Modified Eagle’s Medium (DMEM, Hyclone, Logan, UT, USA) containing 10% fetal bovine serum (FBS, Gibco, Waltham, MA, USA) at 37 °C under 5% CO2 in a humidified environment.
(§2) The cytotoxicity of compounds against Vero, Huh-7, and HEK-293T cells was detected using the Cell Counting Kit-8. Briefly, the target cells were cultured at a density of 8000 cells per well in a 96-well plate containing DMEM enriched with 10% FBS. The cells were allowed to attach overnight, and the medium was replaced with a fresh serum-free DMEM containing 50 µg/mL of compounds. The cell viability was measured at 48 h post-drug treatment by the addition of the CCK-8 reagent (Biosharp, Hefei, Anhui, China), followed by incubation for 4 h. Finally, the absorbance of the cell culture was measured at 450 nm using a microplate reader (PerkinElmer, Waltham, MA, USA). The background absorbance of the blank media was also measured and subtracted from the sample reading. This experiment was repeated 3 times for each group. The obtained results were normalized to that of the control sample, which represented a cell viability of 100%.

[4] = target: ACE2 (Homo sapiens, UniProt Q9BYF1); test: SPR binding to immobilised ACE2
[5] = tested on: Vero cells; test: CCK-8 cytotoxicity, Vero; type: cell-based, African green monkey; conditions: for Survival Rate (%) Vero: 50 μg/mL, 48 h, CCK-8
Method: as §1, §2

[6] = target: ACE2-S-RBD interaction (Severe acute respiratory syndrome coronavirus 2, UniProt P0DTC2); type: binding, SARS-CoV-2
[7] = target: T1, AH109 (pAD-T+pBD-53) (UniProt P02340+P03070); test: Y2H growth inhibition (MIC) of control strain AH109 (pAD-T+pBD-53); type: cell-based, yeast; conditions: SD/-Leu/-Trp/-His/-Ade dropout medium, 48 h
T1 construct: expressed in transfected cells; host or cells: yeast reporter strain AH109 carrying pAD-T and pBD-53
Method: The Chemdiv screening compound library used for HTS assay in this research is a combination of synthetic compounds from Enamine (Kyiv, Ukraine) and Life Chemicals Inc. (Burlington, ON, Canada), which can be purchased from Shanghai Topscience Biotechnology Co., Ltd., China. The compounds were stocked at 10 mg/mL in DMSO and used for the screening assays as described. […] Next, 199 μL of the diluted culture and 1 μL of tested compounds (the final concentration was 50 μg/mL) or DMSO were added into each well. […] The final concentrations of the compounds ranged from 100 μg/mL to 0.78 μg/mL with 2-fold dilutions between concentrations.

[8] = tested on: HEK-293T cells; test: CCK-8 cytotoxicity, HEK-293T; type: cell-based, Human; conditions: for Survival Rate (%) HEK-293T: 50 μg/mL, 48 h, CCK-8
Method: as §1, §2

[9] = target: S-RBD+ACE2 complex (Severe acute respiratory syndrome coronavirus 2, UniProt P0DTC2); parameters: species or system SARS-CoV-2
[10] = tested on: SARS-CoV-2 pseudovirus entry into HEK-293T-hACE2 cells; test: microbe, parasite or virus in culture; type: cell-based
[11] = target: SARS-CoV-2 S-RBD (Severe acute respiratory syndrome coronavirus 2, UniProt P0DTC2); test: biochemical; type: binding
[12] = Severe acute respiratory syndrome-related coronavirus, 18 h, read-out: Inhibition rate of pseudovirus entry

T1 sequence (P03070 87-708 limits assumed): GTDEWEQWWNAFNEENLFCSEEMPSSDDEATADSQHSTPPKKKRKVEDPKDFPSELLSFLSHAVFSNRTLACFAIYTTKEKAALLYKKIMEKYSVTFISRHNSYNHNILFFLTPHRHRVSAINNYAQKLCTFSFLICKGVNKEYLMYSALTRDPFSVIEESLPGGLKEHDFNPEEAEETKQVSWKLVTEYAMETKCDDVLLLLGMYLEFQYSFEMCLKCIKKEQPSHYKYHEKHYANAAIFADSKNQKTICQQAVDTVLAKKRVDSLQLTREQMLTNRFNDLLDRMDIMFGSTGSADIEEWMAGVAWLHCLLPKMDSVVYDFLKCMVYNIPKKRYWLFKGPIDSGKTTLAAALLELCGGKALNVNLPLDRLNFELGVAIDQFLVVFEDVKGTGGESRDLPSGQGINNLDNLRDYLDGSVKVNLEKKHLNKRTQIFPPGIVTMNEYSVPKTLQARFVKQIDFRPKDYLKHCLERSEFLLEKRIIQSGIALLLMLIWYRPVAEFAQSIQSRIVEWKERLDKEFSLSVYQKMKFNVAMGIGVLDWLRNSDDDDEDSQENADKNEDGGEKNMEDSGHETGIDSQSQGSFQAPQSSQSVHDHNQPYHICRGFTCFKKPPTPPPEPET
T1 sequence (P02340 72-390 limits assumed): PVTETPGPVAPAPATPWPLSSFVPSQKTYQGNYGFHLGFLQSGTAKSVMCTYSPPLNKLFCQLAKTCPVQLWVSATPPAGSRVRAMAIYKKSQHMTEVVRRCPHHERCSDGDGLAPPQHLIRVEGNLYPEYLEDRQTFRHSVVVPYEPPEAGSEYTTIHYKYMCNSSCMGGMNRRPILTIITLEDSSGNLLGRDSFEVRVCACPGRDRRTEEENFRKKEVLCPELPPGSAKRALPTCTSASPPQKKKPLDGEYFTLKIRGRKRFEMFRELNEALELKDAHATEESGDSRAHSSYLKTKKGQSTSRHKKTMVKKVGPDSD
ACE2, sequence (Q9BYF1 18-805): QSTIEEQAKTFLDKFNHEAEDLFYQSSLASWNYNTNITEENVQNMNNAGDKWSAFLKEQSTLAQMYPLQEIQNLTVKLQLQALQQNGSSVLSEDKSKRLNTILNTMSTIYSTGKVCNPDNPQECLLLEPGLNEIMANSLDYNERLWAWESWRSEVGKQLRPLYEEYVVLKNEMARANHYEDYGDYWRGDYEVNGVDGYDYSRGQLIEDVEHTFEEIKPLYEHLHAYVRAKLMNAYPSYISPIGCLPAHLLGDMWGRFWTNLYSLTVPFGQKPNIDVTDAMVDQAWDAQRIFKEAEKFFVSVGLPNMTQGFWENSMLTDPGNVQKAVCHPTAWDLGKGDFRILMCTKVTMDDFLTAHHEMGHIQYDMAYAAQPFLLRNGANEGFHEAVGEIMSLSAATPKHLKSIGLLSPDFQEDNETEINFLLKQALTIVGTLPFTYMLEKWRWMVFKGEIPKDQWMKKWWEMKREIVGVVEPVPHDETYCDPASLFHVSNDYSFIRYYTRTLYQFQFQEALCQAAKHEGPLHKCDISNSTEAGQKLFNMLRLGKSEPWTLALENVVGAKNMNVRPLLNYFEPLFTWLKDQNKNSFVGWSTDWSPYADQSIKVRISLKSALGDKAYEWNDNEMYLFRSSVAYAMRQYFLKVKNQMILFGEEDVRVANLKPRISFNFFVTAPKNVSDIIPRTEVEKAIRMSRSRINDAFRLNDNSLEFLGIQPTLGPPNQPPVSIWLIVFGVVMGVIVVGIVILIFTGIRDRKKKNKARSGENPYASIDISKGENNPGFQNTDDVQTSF

O=C(c1ccc(N2CCCCS2(=O)=O)cc1)N1CCN(C(=O)c2ccco2)CC1 [IMB-1C]
Syncytium formation [1]: somewhat blocked in a dose-dependent manner | Concentration showing clear inhibition of β-gal activity [2]: 0.39 µg/mL | Survival Rate (%) Huh-7 [3]: 122% | Effect on cell proliferation of Huh-7 ([3]; up to 50 µg/mL for 48 h): did not affect | Kd [4]: 1.11 µM | Survival Rate (%) Vero [5]: 105% | Effect on cell proliferation of Vero ([5]; up to 50 µg/mL for 48 h): did not affect | SPR signal of ACE2 binding to S-RBD [6]: the signal value decreased | MIC against AH109 (pAD-T+pBD-53) [7]: 3.125 μg/mL | Survival Rate (%) HEK-293T [8]: 88% | Effect on cell proliferation of HEK-293T ([8]; up to 50 µg/mL for 48 h): did not affect | Decrease of β-fold content [9]: 9.46% | Increase of α-helix content [9]: 6.85% | Secondary Structure Content (%) Random [9]: 32.93% | Secondary Structure Content (%) α-Helix [9]: 13.12% | Secondary Structure Content (%) β-Fold [9]: 42.07% | Secondary Structure Content (%) β-Turn [9]: 15.97% | Inhibition of pseudovirus entry (in words) [10]: concentration-dependent inhibition | inhibition at 10 µg/mL [10, 12]: 42.5% | inhibition at 20 µg/mL [10, 12]: 68.1% | Kd [11]: 1.06 µM

Cc1ccc(N(Sc2ccc(Cl)cc2)C2C=CS(=O)(=O)C2)cc1 (stereo not shown) [IMB-4A]
Concentration showing clear inhibition of β-gal activity [2]: 6.25 µg/mL | Survival Rate (%) Huh-7 [3]: 25% | Survival Rate (%) Vero [5]: 71% | MIC against AH109 (pAD-T+pBD-53) [7]: 12.5 μg/mL | Survival Rate (%) HEK-293T [8]: 18% | Inhibition of pseudovirus entry (in words) [10]: could not be observed

CC(C)CCC[C@@H](C)[C@H]1CC[C@H]2[C@@H]3CC[C@H]4C[C@@H](O[C@@H]5O[C@H](COS(=O)(=O)O)[C@@H](O[C@H]6O[C@H](COS(=O)(=O)O)[C@@H](O[C@H]7O[C@H](COS(=O)(=O)O)[C@@H](O[C@H]8O[C@H](COS(=O)(=O)O)[C@@H](OS(=O)(=O)O)[C@H](OS(=O)(=O)O)[C@H]8OS(=O)(=O)O)[C@H](OS(=O)(=O)O)[C@H]7OS(=O)(=O)O)[C@H](OS(=O)(=O)O)[C@H]6OS(=O)(=O)O)[C@H](OS(=O)(=O)O)[C@H]5OS(=O)(=O)O)CC[C@]4(C)[C@H]3CC[C@]12C [Pixatimod, reference compound]
MIC against AH109 (pAD-T+pBD-53) [7]: 6.25 μg/mL
